From US9062093B2, “Peptide compositions and methods for treating patients” (THE REGENTS OF THE UNIVERSITY OF MICHIGAN, priority 2011, dated 2015)

System: C57BL/6J mice
Test: Blood glucose after oral load of glucose together with amino acid or peptide
Format: in vivo
Details: for Blood glucose levels in mice loaded with glucose: non-diabetic mice, glucose 2 mg/g bw and peptide 1 mg/g bw orally
Experimental: An experiment was performed in adult male C57BL/6J mice purchased from Jackson Lab (Bar Harbor, Me.). Fasted mice were given glucose (2 mg/g body weight, diamond line in FIG. 1, n=10) or glycine (0.35 mg/g bw, square line in FIG. 1, n=10) and glucose by gavaging. Blood glucose was measured at 0, 30, 60, 90, and 120 min after giving glucose.
An experiment was performed in adult male C57BL/6J mice purchased from Jackson Lab. In the control group (diamond line in FIG. 13, n=10), glucose was orally administered at dose of 2 mg/g bw. In the Diapin and LLG group (square line or triangle line, n=9), glucose and Diapin or glucose and LLG were orally administered at dose of 2 mg/g bw and 1 mg/g bw, respectively. Blood glucose was measured at 0, 30, 60, 90 and 120 min after gavaging glucose and Diapin.
An experiment was performed in adult male C57BL/6J mice purchased from Jackson Lab. In the control group (diamond line in FIG. 14, n=10), glucose was orally administered at dose of 2 mg/g bw. […] Blood glucose was measured at 0, 30, 60, 90 and 120 min after gavaging glucose and GLG or GLL.
An experiment was performed in adult male C57BL/6J mice purchased from Jackson Lab. […] Blood glucose was measured at 0, 0.5, 1, 1.5 and 2 hours after gavaging glucose, Diapin and amidated Diapin.
An experiment was performed in adult male C57BL/6J mice purchased from Jackson Lab. […] Blood glucose was measured at 0, 0.5, 1, 1.5 and 2 hours after gavaging glucose, Diapin, and acetylated Diapin.
An experiment was performed in adult male C57BL/6J mice purchased from Jackson Lab. […] Blood glucose was measured at 0, 0.5, 1, 1.5 and 2 hours after gavaging glucose, Diapin and amidated/acetylated Diapin.
(§1) An experiment was performed in adult male C57BL/6J mice purchased from Jackson Lab. […] Blood glucose was measured at 30, 60, 90 and 120 min after giving glucose. […]
as §1

NCC(=O)O [glycine, reference compound]
Blood glucose levels compared to the control group (glycine 0.35 mg/g bw and glucose 2 mg/g bw by gavage, fasted mice, any time point (0, 30, 60, 90, 120 min)): not significantly changed

Glycine-Leucine-Leucine [GLL]
Blood glucose levels in mice loaded with glucose: significantly reduce blood glucose levels

Leucine-Leucine-Glycine [LLG]
Blood glucose levels in mice loaded with glucose: significantly reduce blood glucose levels
